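These data come from cells grown in 96-well plates and exposed to compound for 48 hours at five concentrations. Here, GI50 denotes the concentration required for 50% inhibition of growth.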 Active and inactive are the calls of the source. Cut-off read from the data, not from the text of the source: active = GI50 up to about 1.1 µM and inactive = higher.
Columns and labels:
Assay in all cases: NCI tumour cell line growth inhibition, 48 h
[1] = test system: A498
[2] = test system: CAKI-1
[3] = test system: CCRF-CEM
[4] = test system: HOP-92
[5] = test system: HT-29
[6] = test system: K562
[7] = test system: MOLT-4
[8] = test system: NCI-H522
[9] = test system: RPMI-8226
[10] = test system: SF-268
[11] = test system: SF-539
[12] = test system: SK-MEL-28
[13] = test system: SK-OV-3
[14] = test system: SN12C
[15] = test system: TK-10
[16] = test system: UO-31
[17] = test system: RXF 393

Measured: GI50

NC1=NC(Cn2nc(-c3ccccc3)c3ccccc3c2=O)=NNC(=O)N1
inactive: [1] > 100 µM | [2] > 100 µM | [3] > 100 µM | [4] > 100 µM | [5] > 100 µM | [6] > 100 µM | [7] > 100 µM | [8] > 100 µM | [9] > 100 µM | [10] > 100 µM | [11] > 100 µM | [12] > 100 µM | [13] > 100 µM | [14] > 100 µM | [15] > 100 µM | [16] > 100 µM

c1csc(C[N+]23CN4CN(CN(C4)C2)C3)c1
inactive: [2] 25.8 µM | [3] 18.3 µM | [4] 22.7 µM | [5] > 100 µM | [6] 20 µM | [7] 21.6 µM | [8] > 100 µM | [9] 18.9 µM | [10] > 100 µM | [11] > 100 µM | [12] > 100 µM | [15] 26.4 µM | [16] > 100 µM

S=c1[nH]c2ccc(Br)cc2c(=S)n1-c1ccccc1
inactive: [1] 32.4 µM | [2] 29.2 µM | [3] 11.8 µM | [4] 20 µM | [5] 21.9 µM | [6] 29.2 µM | [9] 8.26 µM | [10] 11 µM | [11] 14.8 µM | [12] 9.89 µM | [13] 43.4 µM | [14] 20.6 µM | [15] 42.4 µM | [16] 16.4 µM

COCC12CC(CC1=O)C1C2ON2c3ccccc3C(=O)C12c1ccccc1 (stereo unspecified)
inactive: [1] > 100 µM | [3] 61.2 µM | [4] > 100 µM | [5] > 100 µM | [6] 63.7 µM | [7] 52.5 µM | [8] > 100 µM | [9] 40.7 µM | [17] 33.3 µM | [10] > 100 µM | [11] > 100 µM | [12] > 100 µM | [13] > 100 µM | [14] > 100 µM | [16] > 100 µM

Cc1c(Cl)cccc1NC(=O)C(=O)C1C(=O)NC(=O)NC1=O
inactive: [1] > 100 µM | [2] > 100 µM | [3] > 100 µM | [4] > 100 µM | [5] > 100 µM | [6] > 100 µM | [7] > 100 µM | [8] > 100 µM | [9] > 100 µM | [17] > 100 µM | [10] > 100 µM | [11] > 100 µM | [12] > 100 µM | [13] > 100 µM | [14] > 100 µM | [15] > 100 µM | [16] > 100 µM

CCOc1ccc(NC(=O)C(=O)NO)cc1
inactive: [1] > 100 µM | [2] > 100 µM | [3] > 100 µM | [4] > 100 µM | [5] > 100 µM | [6] > 100 µM | [7] > 100 µM | [8] > 100 µM | [9] > 100 µM | [17] > 100 µM | [10] > 100 µM | [11] > 100 µM | [12] > 100 µM | [13] > 100 µM | [14] > 100 µM | [15] > 100 µM | [16] > 100 µM

COCCNC(=O)C1C(=O)N(CCOC)C(=O)/C1=N/N (stereo unspecified)
inactive: [2] > 100 µM | [3] > 100 µM | [4] > 100 µM | [5] > 100 µM | [6] > 100 µM | [7] > 100 µM | [8] > 100 µM | [9] > 100 µM | [10] > 100 µM | [11] > 100 µM | [12] > 100 µM | [13] > 100 µM | [14] > 100 µM | [15] > 100 µM | [16] > 100 µM

CSc1ccc(NC(=O)C2c3[nH]c4ccccc4c3C3CCC(C(C)(C)C)CC3C2C(=O)O)cc1 (stereo unspecified)
inactive: [1] 17.9 µM | [3] 10.7 µM | [4] 23.2 µM | [5] 16.5 µM | [6] 32.3 µM | [7] 15.1 µM | [8] 15 µM | [9] 20.3 µM | [17] 20 µM | [10] 18.9 µM | [11] 19.7 µM | [12] 22.9 µM | [13] 16.5 µM | [14] 18.6 µM | [16] 17.5 µM

NC(=O)n1ncc(Cl)c(Cl)c1=O
inactive: [1] > 100 µM | [2] > 100 µM | [3] > 100 µM | [4] > 100 µM | [5] > 100 µM | [6] > 100 µM | [8] > 100 µM | [10] > 100 µM | [11] > 100 µM | [12] > 100 µM | [13] > 100 µM | [14] > 100 µM | [15] > 100 µM | [16] > 100 µM

— ChEMBL document CHEMBL1201862, “PubChem BioAssay data set” (2004)
